Laboratory results: patent US20040009534A1, “Protein analysis” (DYAX CORPORATION, priority 2002, published 2004)
Read-outs that look alike come from different tables or passages of the source.

Key:
HSA [1] = biological target: T1, HSA (Homo sapiens, UniProt P02768); experiment: HSA binding test of analytical peptide-Sepharose affinity columns; details: 1 mg HSA injection; for Total Capacity: 0.35 ml column
T1 construct: SwissProt entry: P02768 and/or the following mature
Experimental: The immobilization reaction was initiated by the addition of diisopropylethylamine to 2% (vol/vol). After 4 hours of slow mixing on a shaker table at room temperature, the reaction was quenched by the addition of an equal volume of 0.5 M hydroxylamine, pH 8, in water. For those peptides with ivDde-protected internal lysines, the hydroxylamine quench treatment also removed the ivDde-protecting group. To allow for complete protecting group removal, the quenched reaction was allowed to incubate overnight at room temperature. Once quenched and deprotected, the immobilized peptide-Sepharose resin was washed at least 3 times with water to remove solvent and unbound peptide. Non-specifically bound peptide was eluted off the resin by washing the resin at least three times in 30 mM phosphoric acid, pH 2. Since the NHS-Sepharose resin surface becomes negatively charged after hydrolysis, an acidic wash neutralizes the surface and removes any peptides bound non-covalently to the surface via electrostatic interactions. After washing, the resin was resuspended in water as a 50% v/v mixture. A 50 μl aliquot was used to determine the ligand density on the resin by quantitative amino acid analysis. Finally, the resin slurry was packed into 0.35 ml OMNIFIT™ glass columns (3 mm×50 mm) for analytical testing.
Each peptide was immobilized at high density on NHS-Sepharose resin using the procedure outlined above. The peptides were immobilized via a C-terminal lysine. […] Each column was tested for HSA binding (1 mg injection) in binding buffer—3 mM sodium phosphate, 0.1% Tween-20 detergent, pH 6.2.
One milliliter of albumin solution was passed through each column (0.35 ml) previously equilibrated in equilibration buffer. The columns were washed with the same equilibration buffer and then eluted with 100 mM Tris, pH 9.1 (flow rate, 0.5 ml/min for all steps). The column chromatography was carried out using a BIO-RAD BIOLOGIC™ monitoring system (Hercules, Calif.) throughout this testing with absorbance monitoring at 280 nm.

chicken ovalbumin = biological target: T2, chicken ovalbumin (Gallus gallus, UniProt P01012); experiment: Dissociation constants (KD) against a panel of albumins, negative control; format: binding; details: both sets of buffers
T2 sequence (P01012 1-386): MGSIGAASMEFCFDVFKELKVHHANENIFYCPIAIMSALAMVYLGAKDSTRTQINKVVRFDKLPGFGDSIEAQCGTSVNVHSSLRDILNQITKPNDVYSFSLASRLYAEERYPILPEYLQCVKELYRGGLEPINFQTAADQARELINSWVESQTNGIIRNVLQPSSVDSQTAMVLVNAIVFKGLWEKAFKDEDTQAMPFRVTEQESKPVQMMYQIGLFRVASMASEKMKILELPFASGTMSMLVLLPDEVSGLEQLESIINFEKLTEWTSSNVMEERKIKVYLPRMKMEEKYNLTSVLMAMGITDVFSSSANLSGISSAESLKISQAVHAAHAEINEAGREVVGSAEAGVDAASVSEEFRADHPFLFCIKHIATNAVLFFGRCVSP
Source text: (§1) The binding properties of a ligand that binds a serum protein can be readily assessed using various assay formats. For example, the binding property of a ligand can be measured in solution by fluorescence anisotropy, which provides a convenient and accurate method of determining a dissociation constant (KD) of a binding moiety for a serum albumin from one or more different species. In one such procedure, a binding moiety described herein is labeled with fluorescein. The fluorescein-labeled binding moiety may then be mixed in wells of a multi-well assay plate with various concentrations of a particular species of serum albumin. Fluorescence anisotropy measurements are then carried out using a fluorescence polarization plate reader. The binding interaction between a serum protein and a non-covalently associated compound can be similarly characterized. Other solution measures for studying binding properties include fluorescence resonance energy transfer (FRET) and NMR.
Chicken ovalbumin is not homologous to HSA as determined by sequence alignment analysis.

Goat albumin = experiment: Dissociation constants (KD) against a panel of albumins; format: binding
Source text: as §1

HSA [2] = biological target: T1, HSA; experiment: as above; format: binding; details: phosphate, pH 6.2, O M NaCl
Source text: as §1

[3] = biological target: murine serum albumin (MSA) (Mus musculus, UniProt P07724); experiment: as above; format: binding
Source text: as §1

human IgG1 = details: read-out: dissociation constants (KD), cited from earlier work
human IgG3 = details: human IgG3, pH 5.7; read-out: dissociation constants (KD); cited from earlier work
Fc protein = details: from buffer solution and tobacco extract; cited from earlier work
[4] = fraction: Elution (100 mM Tris, pH 9.1)

Sequence of human IgG1 (P01857 1-330 isoform P01857-1): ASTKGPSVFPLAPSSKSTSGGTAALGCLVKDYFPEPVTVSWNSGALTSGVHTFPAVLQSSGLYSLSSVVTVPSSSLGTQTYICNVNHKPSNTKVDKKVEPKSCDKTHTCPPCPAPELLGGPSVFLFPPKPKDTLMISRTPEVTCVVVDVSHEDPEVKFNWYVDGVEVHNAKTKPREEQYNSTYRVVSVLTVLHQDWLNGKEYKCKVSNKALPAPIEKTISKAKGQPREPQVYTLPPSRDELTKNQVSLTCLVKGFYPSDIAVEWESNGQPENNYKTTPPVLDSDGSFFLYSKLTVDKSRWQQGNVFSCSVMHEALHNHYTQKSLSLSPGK
T1 sequence (P02768 25-609): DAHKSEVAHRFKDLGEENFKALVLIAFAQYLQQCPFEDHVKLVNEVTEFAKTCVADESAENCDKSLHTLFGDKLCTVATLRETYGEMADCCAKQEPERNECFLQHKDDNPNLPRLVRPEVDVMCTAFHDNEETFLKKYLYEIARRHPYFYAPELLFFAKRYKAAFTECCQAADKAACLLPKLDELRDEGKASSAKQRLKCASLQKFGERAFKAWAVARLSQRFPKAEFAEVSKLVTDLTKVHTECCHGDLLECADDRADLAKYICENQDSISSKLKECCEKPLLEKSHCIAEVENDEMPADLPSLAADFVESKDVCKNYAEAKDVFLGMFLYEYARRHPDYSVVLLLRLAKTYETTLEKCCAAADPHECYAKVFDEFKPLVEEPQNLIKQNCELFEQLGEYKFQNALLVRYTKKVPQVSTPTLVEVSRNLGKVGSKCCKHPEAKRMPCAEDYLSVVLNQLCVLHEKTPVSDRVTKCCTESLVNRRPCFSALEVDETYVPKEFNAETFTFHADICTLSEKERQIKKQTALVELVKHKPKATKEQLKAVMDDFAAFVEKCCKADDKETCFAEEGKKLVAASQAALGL
Sequence of murine serum albumin (MSA) (P07724 25-608): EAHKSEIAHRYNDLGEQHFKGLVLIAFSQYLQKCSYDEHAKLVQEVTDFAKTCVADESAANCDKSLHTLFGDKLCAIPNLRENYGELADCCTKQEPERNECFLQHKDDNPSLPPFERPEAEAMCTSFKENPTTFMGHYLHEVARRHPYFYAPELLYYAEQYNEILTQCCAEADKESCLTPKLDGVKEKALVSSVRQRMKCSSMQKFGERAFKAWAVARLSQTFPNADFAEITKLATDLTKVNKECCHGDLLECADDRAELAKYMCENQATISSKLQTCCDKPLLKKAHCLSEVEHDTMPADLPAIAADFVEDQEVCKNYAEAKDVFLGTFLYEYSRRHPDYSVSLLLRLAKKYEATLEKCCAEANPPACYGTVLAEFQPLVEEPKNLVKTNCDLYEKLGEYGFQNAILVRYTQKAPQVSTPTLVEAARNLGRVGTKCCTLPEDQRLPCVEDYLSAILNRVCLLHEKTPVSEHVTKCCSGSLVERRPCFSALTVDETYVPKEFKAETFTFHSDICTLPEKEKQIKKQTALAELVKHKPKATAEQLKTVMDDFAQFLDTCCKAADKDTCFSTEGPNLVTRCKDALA
Sequence of human IgG3 (P01860 1-377 isoform P01860-1): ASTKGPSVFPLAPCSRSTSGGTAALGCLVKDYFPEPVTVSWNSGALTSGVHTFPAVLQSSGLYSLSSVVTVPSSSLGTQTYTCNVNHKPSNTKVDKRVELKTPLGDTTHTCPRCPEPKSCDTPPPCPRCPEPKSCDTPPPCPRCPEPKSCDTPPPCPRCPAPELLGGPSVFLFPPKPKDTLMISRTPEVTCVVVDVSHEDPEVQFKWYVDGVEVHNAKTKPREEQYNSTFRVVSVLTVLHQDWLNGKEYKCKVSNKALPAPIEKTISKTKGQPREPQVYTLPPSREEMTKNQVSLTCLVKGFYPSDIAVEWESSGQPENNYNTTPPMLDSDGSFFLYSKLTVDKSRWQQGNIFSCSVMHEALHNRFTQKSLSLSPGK

Total Capacity (HSA [1]) [mg/mL] | μg HSA (HSA [1]; [4]) [µg] | μg HSA (HSA [1]; fraction: Flow through, pH 6.2) [µg] | Kd (Goat albumin; PBS, pH 7.4, […] NaCl) [µM] | Kd (Goat albumin; phosphate, pH 6.2, O M NaCl) [µM] | Molecule | binding to chicken ovalbumin (chicken ovalbumin) | Kd (human IgG1; IgG1, pH 7.4) [µM] | Kd (human IgG1; human IgG1, pH 5.7) [µM] | further results
>2.7 | 947 | 0 | 23 | 1.6 | CC[C@H](C)[C@@H]1NC(=O)[C@H](CCCNC(=N)N)NC(=O)[C@H](CC(=O)O)NC(=O)[C@@H](NC(=O)[C@H](Cc2ccccc2)NC(=O)[C@H](Cc2c[nH]c3ccccc23)NC(=O)[C@H](Cc2ccccc2)NC(=O)[C@H](CC(=O)O)NC(=O)CNC(=O)[C@@H](NC(=O)CNC(=O)[C@H](CCC(=O)O)NC(=O)[C@H](C)NC(C)=O)[C@@H](C)O)CSSC[C@@H](C(=O)N[C@@H](CCC(=O)O)C(=O)N[C@@H](Cc2ccccc2)C(=O)N[C@@H](CC(C)C)C(=O)N[C@@H](CC(=O)O)C(=O)N2CCC[C@H]2C(=O)N[C@@H](CCC(=O)O)C(=O)NCC(=O)NCC(=O)NCC(=O)N[C@@H](CCCCN)C(N)=O)NC(=O)[C@H](CC(C)C)NC(=O)[C@H](Cc2c[nH]cn2)NC(=O)[C@H](CCC(N)=O)NC(=O)[C@@H]2CCCN2C(=O)[C@H](Cc2ccc(O)cc2)NC(=O)[C@H](Cc2c[nH]c3ccccc23)NC(=O)[C@H](C)NC1=O [DX-236] | neither peptide showed any significant binding |  |  | 
>1.1 | 370 | 554 | 83 | 95 | CC[C@H](C)[C@@H]1NC(=O)[C@H](Cc2c[nH]c3ccccc23)NC(=O)[C@H](CO)NC(=O)[C@H](Cc2ccccc2)NC(=O)[C@H](CCCCN)NC(=O)[C@@H](NC(=O)[C@H](CCSC)NC(=O)[C@H](CC(N)=O)NC(=O)[C@H](CCCNC(=N)N)NC(=O)[C@H](CC(=O)O)NC(=O)CNC(=O)[C@@H](NC(=O)CNC(=O)[C@H](CCC(=O)O)NC(=O)[C@H](C)NC(C)=O)[C@@H](C)O)CSSC[C@@H](C(=O)N[C@@H](C)C(=O)N[C@@H](CCCNC(=N)N)C(=O)N[C@@H](C)C(=O)N[C@@H](CC(=O)O)C(=O)N2CCC[C@H]2C(=O)N[C@@H](CCC(=O)O)C(=O)NCCCCCC(=O)N[C@@H](CCCCN)C(N)=O)NC(=O)[C@H](Cc2ccccc2)NC(=O)[C@H](C)NC(=O)[C@@H]2CCCN2C(=O)[C@H](CO)NC(=O)[C@H](CCCNC(=N)N)NC1=O [DX-321] | neither peptide showed any significant binding |  |  | KD (HSA [2]): submicromolar; Kd ([3]; PBS, pH 7.4, 0.14 M NaCl): > 200 µM; Kd ([3]; phosphate, pH 6.2, O M NaCl): > 200 µM
 |  |  |  |  | AGYYWCNYWGLCPDQGTPGPEGGGK [DX254] |  | < 2 | < 0.1 | Kd (human IgG1; human IgG1, pH 9.3): < 1 µM
 |  |  |  |  | GDDDHCYWFREWFNSECPHGEPGPEGGGK [DX252] |  |  |  | Kd (human IgG3): < 0.1 µM
 |  |  |  |  | GDDHMCVYTTWGELIWCDNHEPGPEGGGK [DX249] |  | < 0.5 | < 0.1 | 
 |  |  |  |  | GDRRACSRDWSGALVWCAGHEPGPEGGGK [DX253] |  |  |  | capture efficiency (quantitative binding of Fc protein) (Fc protein): > 90 % of total load
